Broadly, the AUC is concentration integrated over time. A lower AUC goes with less exposure. The term solubility denotes the dissolved amount per volume that the medium holds. A low value points to a poorly soluble substance.

A value given as a limit tells only on which side of the number the result lay.

The record followed here is patent US20040132771A1, “Compositions of choleseteryl ester transfer protein inhibitors and HMG-CoA reductase inhibitors” (Pfizer Inc, priority 2002, published 2004).

What all share (assay type): physicochemical
Series [1] in a line: in vitro dissolution test using a syringe method (torcetrapib). The note with it: for Torcetrapib Concentration / AUC: PBS pH 6.5, 2 wt % NaTC/POPC. On the procedure: (§1) An 8.0 mg sample of the adsorbate was added to 40 mL phosphate buffered saline (PBS) at pH 6.5 and 290 mOsm/kg, containing 2 wt % sodium taurocholic acid and 1-palmitoyl-2-oleyl-sn-glycero-3-phosphocholine (NaTC/POPC, with a 4/1 weight ratio). The concentration of drug would have been 50 μg/mL, if all of the drug had dissolved. The test solution was stirred at room temperature in a syringe equipped with a Gelman Acrodisc 13 CR 0.45 μm PTFE filter. At each sample time, about 2 mL of the test solution was pushed through the filter and analyzed using UV at a wavelength of 256 nm to determine the concentration of torcetrapib in solution. Samples were collected at 1, 2, 3, 5, 10, 15, 20, 30, 45, 60, and 90 minutes. Crystalline torcetrapib alone is shown as a comparison.
The dissolution rate constant was obtained by performing a least squares fit of the experimental data using the following equation: […]
In this test, 7.855 mg of the Solid Amorphous Adsorbate 2 was added to 40 mL phosphate buffered saline (PBS) at pH 6.5 and 290 mOsm/kg, containing 2 wt % NaTC/POPC (the concentration of drug would have been 49 μg/mL, if all of the drug had dissolved).

Series [2] is described as follows: aqueous solubility of torcetrapib.
The nature of series [3]: in vitro dissolution test using a syringe method (Drug 2). The note with it: for AUC / Drug 2 Concentration: PBS pH 6.5, 2 wt % NaTC/POPC. On the procedure:
as §1, with “Samples were collected at 1, 2, 3, 5, 10, 15, 20, 30, 45, 60, and 90 minutes.” left out
Crystalline Drug 2 alone is shown as a comparison. In all cases, a sufficient amount of sample was added so that the concentration of drug would have been 50 μg/mL, if all of the drug had dissolved.

With `CCOC(=O)N1c2ccc(C(F)(F)F)cc2[C@@H](N(Cc2cc(C(F)(F)F)cc(C(F)(F)F)c2)C(=O)OC)C[C@H]1CC` [torcetrapib, [2R,4S]-4-[(3,5-bis-trifluoromethyl-benzyl)-methoxycarbonyl-amino]-2-ethyl-6-trifluoromethyl-3,4-dihydro-2H-quinoline-1-carboxylic acid ethyl ester], the “MDCmax,90” value in series [1] (maximum concentration of torcetrapib in solution during the first 90 minutes) is <0.5 µg/mL. The “Torcetrapib Concentration” value in series [1] (time 0 min), in series [1] (time 1 min), in series [1] (time 2 min), in series [1] (time 3 min), in series [1] (time 5 min) and in series [1] (time 10 min) was <0.5 µg/mL each time. The “Torcetrapib Concentration” value in series [1] (time 15 min), in series [1] (time 20 min), in series [1] (time 30 min), in series [1] (time 45 min), in series [1] (time 60 min) and in series [1] (time 90 min) was <0.5 µg/mL in each case. In series [1] (torcetrapib, area under the aqueous concentration versus time curve after 90 minutes), the AUC90 is on record as <45 min-μg/mL. Moreover, the “Dissolution Rate Constant, k” value in series [1] (torcetrapib, least squares fit of [D]t=[D]o(1−e^−kt)) was <0.0005 min⁻¹. Further, the exposure (AUC) was 0 µg·min/mL in series [1] (torcetrapib, time 0 min); 0 µg·min/mL in series [1] (torcetrapib, time 1 min); <1 µg·min/mL in series [1] (torcetrapib, time 2 min); <1 µg·min/mL in series [1] (torcetrapib, time 3 min); <2 µg·min/mL in series [1] (torcetrapib, time 5 min); <5 µg·min/mL in series [1] (torcetrapib, time 10 min). Moreover, the exposure (AUC) is <7 µg·min/mL in series [1] (torcetrapib, time 15 min); <10 µg·min/mL in series [1] (torcetrapib, time 20 min); <15 µg·min/mL in series [1] (torcetrapib, time 30 min); <22 µg·min/mL in series [1] (torcetrapib, time 45 min); <30 µg·min/mL in series [1] (torcetrapib, time 60 min); <45 µg·min/mL in series [1] (torcetrapib, time 90 min). For the same compound, the solubility in series [2] is < 0.04 µg/mL.
Turning to `CC[C@@H]1C[C@H](N(Cc2cc(C(F)(F)F)cc(C(F)(F)F)c2)C(=O)OC)c2cc(C(F)(F)F)ccc2N1C(=O)OC(C)C` [Drug 2, [2R,4S]4-[(3,5-bis-trifluoromethyl-benzyl)-methoxycarbonyl-amino]-2-ethyl-6-trifluoromethyl-3,4-dihydro-2H-quinoline-1-carboxylic acid isopropyl ester], the “Dissolution Rate Constant, k” value in series [3] (Drug 2) came out at 0.005 min⁻¹. Also, the AUC90 in series [3] (Drug 2, area under the aqueous concentration versus time curve after 90 minutes) was found to be 383 µg·min/mL. Moreover, the AUC came to 0 µg·min/mL in series [3] (Drug 2, time 0 min); 0 µg·min/mL in series [3] (Drug 2, time 0.5 min); 2.6 µg·min/mL in series [3] (Drug 2, time 5 min); 17 µg·min/mL in series [3] (Drug 2, time 15 min); 111 µg·min/mL in series [3] (Drug 2, time 45 min); 383 µg·min/mL in series [3] (Drug 2, time 90 min). Also, the MDC90 in series [3] (maximum concentration of Drug 2 in solution during the first 90 minutes) amounted to 7.6 µg/mL. The “Drug 2 Concentration” value in series [3] (time 0 min) turned out to be 0 µg/mL; in series [3] (time 0.5 min) it was 0.1 µg/mL; in series [3] (time 5 min) it was 1.0 µg/mL; in series [3] (time 15 min), 1.8 µg/mL; in series [3] (time 45 min), 4.5 µg/mL; in series [3] (time 90 min) it was 7.6 µg/mL.
